Measured values published in US20110039763A1, “TARGETED ANTIMICROBIAL MOIETIES” (C3 JIAN, INC., priority 2009, published 2011).

Experiments:
[1] = test system: microorganisms; experiment: Peptide activities: targeting/binding, antimicrobial, growth or phenotype altering (Tables 7, 8); assay type: cell-based; settings: peptides having multiple activities
Description: In certain embodiments, peptides described herein can have multiple activities. Thus for example, a peptide can have both binding/targeting activity and antimicrobial activity. Such peptides can be used, e.g., in a chimeric construct, for any or all of these properties. Thus, for example, a peptide designated “B” in Table 8 can be used as a targeting peptide. If it is also designated G or M it can also be used for antimicrobial activity.
Table 8. Peptides Having Multiple Activities. B: Targeting/Binding Activity; M: Antimicrobial Activity; G: GROWTH or Phenotype Altering.

[2] = test system: microorganisms; experiment: Morphology, biofilm and growth disrupting peptides (Table 5); assay type: cell-based; set-up: key: A: Peptide aggregates; B: Less hyphal formation; Clumps; Diffuse clumps and small polyps; F: Diffuse growth; H: Thin; I: Growth inhibition; Microcolony formation; Rippled; Small polyps; Thick; W: Halo formation on top, microlonies on bottom
Description: In certain embodiments peptides that induce alterations in phenotype or other biological activities can also be used as antimicrobial effector moieties.

Substance: PF-063: peptide having multiple activities (IAAIIVLVLFQKGLLQIFNWILIQLQ; Peptide with targeting and/or antimicrobial activity)
- Activities [1]: G B
- Organism, effect: B. subtilis [2]: B. subtilis (C)
- Organism, effect: C. jeikeium [2]: C. jeikeium (D)
- Organism, effect: C. jejuni [2]: C. jejuni (D)
- Organism, effect: M. luteus [2]: M. luteus (R)
- Organism, effect: MRSA [2]: MRSA (M)
- Organism, effect: P. aeruginosa [2]: P. aeruginosa (A)
- Organism, effect: S. epidermidis [2]: S. epidermidis (R)
- Organism, effect: S. pneumoniae [2]: S. pneumoniae (D)

Substance: PF-067: peptide having multiple activities (DLIVKVHICFVVKTASGYCYLNKREAQAAI; Peptide with targeting and/or antimicrobial activity)
- Activities [1]: G B
- Organism, effect: B. subtilis [2]: B. subtilis (C)
- Organism, effect: C. jeikeium [2]: C. jeikeium (D)
- Organism, effect: C. jejuni [2]: C. jejuni (D)
- Organism, effect: M. luteus [2]: M. luteus (R)
- Organism, effect: MRSA [2]: MRSA (M)
- Organism, effect: P. aeruginosa [2]: P. aeruginosa (A)
- Organism, effect: S. epidermidis [2]: S. epidermidis (D)
- Organism, effect: S. pneumoniae [2]: S. pneumoniae (D)

Substance: PF-076: peptide having multiple activities (chain 1 LYQYELLSKEEYLKCTLIINQRRNEQK; chain 2 LYQYELLSKEEYLKCTLIINQRRNEQK; Peptide with targeting and/or antimicrobial activity)
- Activities [1]: G B
- Organism, effect: C. jeikeium [2]: C. jeikeium (A)
- Organism, effect: M. luteus [2]: M. luteus (A)
- Organism, effect: MRSA [2]: MRSA (R)
- Organism, effect: S. epidermidis [2]: S. epidermidis (S)

Substance: PF-125: peptide having multiple activities (chain 1 YVVGALVILAVAGLIYSMLRKA; chain 2 YVVGALVILAVAGLIYSMLRKA; Peptide with targeting and/or antimicrobial activity)
- Activities [1]: G B
- Organism, effect: M. luteus [2]: M. luteus (C)
- Organism, effect: S. epidermidis [2]: S. epidermidis (D)

Substance: PF-139: peptide having multiple activities (chain 1 ALSKPAIQARTLCRRQDPP; chain 2 ALSKPAIQARTLCRRQDPP; Peptide with targeting and/or antimicrobial activity)
- Activities [1]: G B
- Organism, effect: C. jeikeium [2]: C. jeikeium (R)
- Organism, effect: M. luteus [2]: M. luteus (C)
- Organism, effect: S. epidermidis [2]: S. epidermidis (M)

Substance: PF-140: peptide having multiple activities (chain 1 FHRRVIRASEWALTTRSFSTPLRSAAR; chain 2 FHRRVIRASEWALTTRSFSTPLRSAAR; Peptide with targeting and/or antimicrobial activity)
- Activities [1]: G B
- Organism, effect: C. albicans ([2]; C. albicans): C. albicans (B)
- Organism, effect: C. jeikeium [2]: C. jeikeium (D)
- Organism, effect: C. jejuni [2]: C. jejuni (D)
- Organism, effect: M. luteus [2]: M. luteus (R)
- Organism, effect: MRSA [2]: MRSA (M)
- Organism, effect: P. aeruginosa [2]: P. aeruginosa (A)
- Organism, effect: S. epidermidis [2]: S. epidermidis (D)
- Organism, effect: S. pneumoniae [2]: S. pneumoniae (D)

Substance: PF-145: peptide having multiple activities (chain 1 GIVLTGRAGLVSGACSMALGVGLG; chain 2 GIVLTGRAGLVSGACSMALGVGLG; Peptide with targeting and/or antimicrobial activity)
- Activities [1]: G B
- Organism, effect: B. subtilis [2]: B. subtilis (C)
- Organism, effect: C. jeikeium [2]: C. jeikeium (R)
- Organism, effect: C. jejuni [2]: C. jejuni (R)
- Organism, effect: M. luteus [2]: M. luteus (A)
- Organism, effect: MRSA [2]: MRSA (M)
- Organism, effect: S. epidermidis [2]: S. epidermidis (D)
- Organism, effect: S. pneumoniae [2]: S. pneumoniae (R)

Substance: PF-157: peptide having multiple activities (HTAVVWLAGVSGCVALSHCEPA; Peptide with targeting and/or antimicrobial activity)
- Activities [1]: G B
- Organism, effect: S. epidermidis [2]: S. epidermidis (M)

Substance: PF-178: peptide having multiple activities (EVYSSPTNNVAITVQNN; Peptide with targeting and/or antimicrobial activity)
- Activities [1]: G B
- Organism, effect: E. coli [2]: E. coli (C)
- Organism, effect: MRSA [2]: MRSA (M)
- Organism, effect: S. epidermidis [2]: S. epidermidis (D)
- Organism, effect: S. pneumoniae [2]: S. pneumoniae (D)

Substance: PF-190: peptide having multiple activities (HFILRKPLLFMIHSLKTGPLDRF; Peptide with targeting and/or antimicrobial activity)
- Activities [1]: G B
- Organism, effect: C. jeikeium [2]: C. jeikeium (R)
- Organism, effect: S. epidermidis [2]: S. epidermidis (C)

Substance: PF-196: peptide having multiple activities (TTARYIRRQCHTSITPLSQG; Peptide with targeting and/or antimicrobial activity)
- Activities [1]: G B
- Organism, effect: C. jeikeium [2]: C. jeikeium (R)
- Organism, effect: S. epidermidis [2]: S. epidermidis (C)

Substance: PF-203: peptide having multiple activities (SWKCHHLAI; Peptide with targeting and/or antimicrobial activity)
- Activities [1]: G B
- Organism, effect: C. jeikeium [2]: C. jeikeium (R)
- Organism, effect: S. epidermidis [2]: S. epidermidis (A)

Substance: PF-347: peptide having multiple activities (GIFTGVTVVVSLKHC; Peptide with targeting and/or antimicrobial activity)
- Activities [1]: G B
- Organism, effect: E. coli [2]: E. coli (C)
- Organism, effect: E. faecalis [2]: E. faecalis (C)
- Organism, effect: MRSA [2]: MRSA (C)
- Organism, effect: S. epidermidis [2]: S. epidermidis (C)

Substance: PF-354: peptide having multiple activities (FTFSKCRASNGRGFGTLWL; Peptide with targeting and/or antimicrobial activity)
- Activities [1]: G B
- Organism, effect: MRSA [2]: MRSA (H)

Substance: PF-355: peptide having multiple activities (chain 1 WIAIGLLLYFSLKNQ; chain 2 WIAIGLLLYFSLKNQ; Peptide with targeting and/or antimicrobial activity)
- Activities [1]: G B
- Organism, effect: C. jejuni [2]: C. jejuni (D)
- Organism, effect: E. coli [2]: E. coli (C)
- Organism, effect: E. faecalis [2]: E. faecalis (D)
- Organism, effect: MRSA [2]: MRSA (A)
- Organism, effect: P. aeruginosa [2]: P. aeruginosa (A)
- Organism, effect: S. epidermidis [2]: S. epidermidis (C)
- Organism, effect: S. pneumoniae [2]: S. pneumoniae (D)

Substance: PF-356: peptide having multiple activities (chain 1 VSIKIGAIVIGMIGLMELLTE; chain 2 VSIKIGAIVIGMIGLMELLTE; Peptide with targeting and/or antimicrobial activity)
- Activities [1]: G B
- Organism, effect: C. jejuni [2]: C. jejuni (D)
- Organism, effect: E. faecalis [2]: E. faecalis (R)
- Organism, effect: MRSA [2]: MRSA (C)
- Organism, effect: P. aeruginosa [2]: P. aeruginosa (A)
- Organism, effect: S. epidermidis [2]: S. epidermidis (S)
- Organism, effect: S. pneumoniae [2]: S. pneumoniae (R)

Substance: PF-357: peptide having multiple activities (chain 1 MLTIIIGFIFWTMTLMLGYLIGEREGRKHE; chain 2 MLTIIIGFIFWTMTLMLGYLIGEREGRKHE; Peptide with targeting and/or antimicrobial activity)
- Activities [1]: G B
- Organism, effect: M. luteus [2]: M. luteus (C)
- Organism, effect: MRSA [2]: MRSA (M)
- Organism, effect: S. epidermidis [2]: S. epidermidis (M)
- Organism, effect: S. pneumoniae [2]: S. pneumoniae (M)

Substance: PF-374: peptide having multiple activities (chain 1 HLFFVKGMFILCQKNQINDE; chain 2 HLFFVKGMFILCQKNQINDE; Peptide with targeting and/or antimicrobial activity)
- Activities [1]: G B
- Organism, effect: E. coli [2]: E. coli (C)
- Organism, effect: E. faecalis [2]: E. faecalis (C)
- Organism, effect: MRSA [2]: MRSA (M)
- Organism, effect: S. epidermidis [2]: S. epidermidis (C)

Substance: PF-376: peptide having multiple activities (chain 1 MTVFEALMLAIAFATLIVKISNKNDKK; chain 2 MTVFEALMLAIAFATLIVKISNKNDKK; Peptide with targeting and/or antimicrobial activity)
- Activities [1]: G B
- Organism, effect: E. coli [2]: E. coli (C)
- Organism, effect: E. faecalis [2]: E. faecalis (C)
- Organism, effect: MRSA [2]: MRSA (C)
- Organism, effect: S. epidermidis [2]: S. epidermidis (C)

Substance: PF-379: peptide having multiple activities (chain 1 VFVVLFIIYLASKLLTKLFPIKK; chain 2 VFVVLFIIYLASKLLTKLFPIKK; Peptide with targeting and/or antimicrobial activity)
- Activities [1]: G B
- Organism, effect: E. coli [2]: E. coli (C)
- Organism, effect: E. faecalis [2]: E. faecalis (C)
- Organism, effect: MRSA [2]: MRSA (C)
- Organism, effect: S. epidermidis [2]: S. epidermidis (C)

Substance: PF-380: peptide having multiple activities (chain 1 KKIIPLITLFVVTLVG; chain 2 KKIIPLITLFVVTLVG; Peptide with targeting and/or antimicrobial activity)
- Activities [1]: G B
- Organism, effect: C. jejuni [2]: C. jejuni (D)
- Organism, effect: E. coli [2]: E. coli (C)
- Organism, effect: E. faecalis [2]: E. faecalis (C)
- Organism, effect: MRSA [2]: MRSA (D)
- Organism, effect: P. aeruginosa [2]: P. aeruginosa (A)
- Organism, effect: S. epidermidis [2]: S. epidermidis (C)
- Organism, effect: S. pneumoniae [2]: S. pneumoniae (D)
